Like-named read-outs stand apart in the source and are kept apart here.
Legend:
[1] = test system: MCF-7 human breast adenocarcinoma cells; experiment: Cytotoxicity, SRB assay, 48 h; format: cell-based; conditions: Homo sapiens, MCF7
Method: (§1) To further assess the biological efficacies of the Compounds in intact cells, each Compound was evaluated for cytotoxicity using human cancer cell lines. These experiments followed methods that have been extensively used. Cell lines tested included MCF-7 human breast adenocarcinoma cells. The indicated cell lines were treated with varying doses of the test Compound for 48 h. Cell survival was then determined using the SRB binding assay (Skehan et al., 1990, J Natl Cancer Inst 82: 1107), and the concentration of compound that inhibited proliferation by 50% (the IC50) was calculated. Values (in μM) represent the mean±sd for replicate trials.

[2] = test system: Caco-2 (colon); experiment: Cytotoxicity, sulforhodamine B, 48 h; format: cell-based; conditions: Homo sapiens, mean ± sd
[3] = test system: Hep-G2 (liver); experiment: Cytotoxicity, sulforhodamine B, 48 h; format: cell-based; conditions: Homo sapiens, HepG2, mean ± sd
[4] = test system: 1025LU (Melanoma); experiment: Cytotoxicity, sulforhodamine B, 48 h; format: cell-based; conditions: Homo sapiens, mean ± sd
Method: as §1

[5] = test system: A-498 (Kidney); experiment: Cytotoxicity, sulforhodamine B, 48 h; format: cell-based; conditions: Homo sapiens, A498, mean ± sd
Method: as §1

[6] = test system: DU145 (prostate); experiment: Cytotoxicity, sulforhodamine B, 48 h; format: cell-based; conditions: Homo sapiens, DU-145, mean ± sd
Method: as §1

[7] = test system: HT-29 (colon); experiment: Cytotoxicity, sulforhodamine B, 48 h; format: cell-based; conditions: Homo sapiens, mean ± sd
Method: as §1

[8] = test system: MDA-MB-231 (breast, ER−); experiment: Cytotoxicity, sulforhodamine B, 48 h; format: cell-based; conditions: Homo sapiens, mean ± sd
Method: as §1

[9] = test system: SK-OV-3 (ovary); experiment: Cytotoxicity, sulforhodamine B, 48 h; format: cell-based; conditions: Homo sapiens, mean ± sd
Method: as §1

[10] = test system: Panc-1 (pancreas); experiment: Cytotoxicity, sulforhodamine B, 48 h; format: cell-based; conditions: Homo sapiens, mean ± sd
[11] = test system: T24 (bladder); experiment: Cytotoxicity, sulforhodamine B, 48 h; format: cell-based; conditions: Homo sapiens, mean ± sd
[12] = physchem; format: physicochemical; conditions: aqueous with cosolvent or surfactant or cyclodextrin, in DMSO: PBS (IP) or PEG400 (oral)
[13] = test system: female Swiss-Webster mice; experiment: In vivo toxicity in mice; conditions: orally up to at least 100 mg/kg
[14] = Oral pharmacokinetics in mice; format: in vivo; conditions: mouse, whole blood; for AUC(0-inf): 100 mg/kg oral gavage in PEG400, female Swiss-Webster mice, blood
Method: Oral pharmacokinetic studies were performed on Compound 8. The compound was dissolved in PEG400 and administered to female Swiss-Webster mice at a dose of 100 mg/kg by oral gavage. Mice were anesthetized and blood was removed via cardiac puncture at 5 minutes, 30 minutes, 1, 2, and 8 hours. Concentrations of the test compounds were determined using liquid-liquid extraction, appropriate internal standards and reverse phase HPLC with UV detection. Control blood samples were run to identify compound-specific peaks. Pharmacokinetic parameters were calculated using the WINNONLIN analysis software package (Pharsight). Non-compartmental and compartmental models were tested, with the results shown in Table 8 derived from the best fit equations.

[15] = test system: JC murine adenocarcinoma cells in Balb/c mice; experiment: JC mammary adenocarcinoma syngeneic tumor model; format: in vivo; conditions: for inhibition of tumor growth relative to controls: 50 mg/kg IP every-other day, Balb/c mice; for In vivo activity: JC tumor model, intraperitoneal (ip) or oral (po)
Method: FIG. 1. Inhibition of tumor growth by SK inhibitors. Balb/c female mice were injected subcutaneously with JC murine adenocarcinoma cells suspended in PBS. After palpable tumor growth, animals were treated by intraperitoneal injection of either 0.1 mL of 50% DMSO (control, circles) or 50 mg/kg of Compound 8 (squares) or Compound 73 (triangles) on odd numbered days. Whole body weight and tumor volume measurement were performed for up to 18 days. * p<0.05. Inset: Averaged body weights of mice from each group during course of study.
FIG. 2. Dose-response relationships for inhibition of tumor growth by Compound 8. Balb/c female mice were injected subcutaneously with JC cells suspended in PBS. After palpable tumor growth, animals were treated by oral gavage of either 100 μl of PEG400 (control, circles) or Compound 8 at 3.5 mg/kg (diamonds), 10 mg/kg (inverted triangles), 35 mg/kg (triangles) or 100 mg/kg (squares) on odd numbered days. Whole body weight and tumor volume measurement were performed for up to 18 days.
The SK inhibitors Compounds 8 and 73 were dissolved in 50% DMSO and administered by intraperitoneal injection to mice every-other day at a dose of 50 mg/kg. Body weights and tumor volumes were monitored daily.

[16] = test system: IEC6 rat intestinal epithelial cells; experiment: TNFα-induced PGE2 production (Cox-2 activity), ELISA; format: cell-based; conditions: 100 ng TNFα/mL, 18 hours, 10 μg/mL compound
Method: (§2) FIG. 3. Inhibition of TNFα-induced Cox-2 activity by Compound 8. Rat IEC6 cells (Panel A) or human endothelial cells (Panel B) were incubated for 18 hours with dimethylsulfoxide (DMSO) as a solvent control, or 100 ng of TNFα/mL in the presence of DMSO or 10 μg/mL of Compound 8. Levels of PGE2 secreted into the medium were quantified by ELISA. Values represent the mean±sd for triplicate samples in a typical experiment.
(§3) To determine the effects of the SK inhibitors on Cox-2 activity, an ELISA assay was used to measure PGE2 production by IEC6 rat intestinal epithelial cells and human endothelial cells treated with TNFα.

[17] = test system: human endothelial cells; experiment: as above; format: cell-based; conditions: 100 ng TNFα/mL, 18 hours, 10 μg/mL compound
Method: as §2, §3

[18] = Table 6, 48 h, SRB, inhibition of cell proliferation, read-out: MCF-7 IC50
[19] = Table 7, 48 hours, mean ± sd, read-out: IC50 (μM) MCF-7
[20] = female, Swiss-Webster, 100 mg/kg oral gavage, mice

With `CCCC(=O)Oc1ccc(C=CC(=O)Nc2nc(-c3ccc(Cl)cc3)cs2)cc1OC` [Compound 8, Butyric acid 4-{2-[4-(4-chloro-phenyl)-thiazol-2-ylcarbamoyl]-vinyl}-2-methoxy-phenyl ester] the IC50 [1, 18] was 6.6 µM, the IC50 [1, 19] was 25.2 ± 4.7 µM and the IC50 [2] was 2.6 ± 1.2 µM. It also gave an IC50 [3] of 81.5 ± 38.9 µM, an IC50 [4] of 30.1 ± 3.9 µM and an IC50 [5] of 38.3 ± 7.7 µM. It also gave an IC50 [6] of 21.2 ± 1.3 µM, an IC50 [7] of 54.7 ± 0.1 µM and an IC50 [8] of 30.1 ± 3.9 µM. For the same molecule, the IC50 [9] was 23.7 ± 3.2 µM, the IC50 [10] was 19 ± 2.5 µM and the IC50 [11] was 25.2 ± 2.9 µM. The solubility ([12]; read-out: solubility) was ≥ 15 mg/mL, the solubility ([12]; read-out: solubility (molar)) was 30 to 40 mM and the “toxicity, oral administration” value [13] was “without noticeable toxicity”. For the same molecule, the Cmax [14, 20] was 34.4 µM, the Tmax [14, 20] was 1 h and the half-life [14, 20] was 1910 min. The AUC(0-inf) ([14]; read-out: AUC0 → ∞ (μM*h)) was 1500 µM·h, the AUC(0-inf) ([14]; read-out: AUC0 → ∞ (μg*h/mL)) was 475 µg·h/mL and the “inhibition of tumor growth relative to controls” value [15] was 66%. The In vivo activity [15] was “active - ip and po”, the “oral doses with antitumor activity” value ([15]; oral gavage 3.5-100 mg/kg on odd numbered days) was ≥ 10 mg/kg and the “toxicity to the mice in the dose-response study” value ([15]; oral, any dose (3.5-100 mg/kg)) was “No toxicity”. For the same molecule, the “TNFα-induced Cox-2 activity (PGE2 production)” value [16] was “strongly suppressed” and the “TNFα-induced Cox-2 activity (PGE2 production)” value [17] was “strongly suppressed”.

`Clc1ccc(-c2csc(NCc3ccccc3)n2)cc1` [Compound 73, Benzyl-[4-(4-chloro-phenyl)-thiazol-2-yl]-amine] gave an IC50 [1, 18] of 8.3 µM, an IC50 [1, 19] of 1.8 ± 0.7 µM and an IC50 [2] of 6.3 ± 5.2 µM. It also gave an IC50 [3] of 13.8 ± 8.7 µM, an IC50 [4] of 8.3 ± 2.4 µM and an IC50 [5] of 4 ± 1.9 µM. The IC50 [6] was 6.5 ± 3.6 µM, the IC50 [7] was 29.9 ± 9.4 µM and the IC50 [8] was 26.6 ± 6.7 µM. It also gave an IC50 [9] of 10.2 ± 0.3 µM, an IC50 [10] of 6.7 ± 2.4 µM and an IC50 [11] of 22.7 ± 4.8 µM. For the same molecule, the solubility ([12]; read-out: solubility) was ≥ 15 mg/mL, the solubility ([12]; read-out: solubility (molar)) was 30 to 40 mM and the “toxicity, oral administration” value [13] was “without noticeable toxicity”. The “inhibition of tumor growth relative to controls” value [15] was 69% and the In vivo activity [15] was “active - ip”.

Source: patent US20100137315A1, “Sphingosine Kinase Inhibitors and Methods of Their Use” (APOGEE BIOTECHNOLOGY CORPORATION, priority 2005, published 2010)
